Measurements as given in patent US20240391862A1, “(1,4,5-TRISUBSTITUTED-1H-PYRAZOL-3-YL)OXY-2-ALKOXY ALKYL ACIDS AND THEIR DERIVATIVES, THEIR SALTS AND THEIR USE AS HERBICIDAL AGENTS” (Bayer AKtiengesellschaft, priority 2021, published 2024).

Test system: various unwanted plants
Experiment: Post-emergence effect against various unwanted plants (PO): comparative test of I-01 with compounds from WO2020/245044 (Tables 41a, 41b) and summary statements
Assay type: in vivo
Conditions: for Post-emergence effect, Effect %, ALOMY / Post-emergence effect, Effect %, AVEFA / Post-emergence effect, Effect %, ECHCG / Post-emergence effect, Effect %, LOLRI / Post-emergence effect, Effect %, SETVI: comparative test
Protocol: Seeds of monocotyledonous and dicotyledonous weeds and crop plants are placed in sandy loam in plastic or organic planting pots, covered with soil and cultivated in a greenhouse under controlled growth conditions. 2 to 3 weeks after sowing, the trial plants are treated at the one-leaf stage. The compounds of the invention, formulated in the form of wettable powders (WP) or as emulsion concentrates (EC), are then sprayed onto the green parts of the plants as aqueous suspension or emulsion with addition of 0.5% additive at a water application rate of 600 l/ha (converted). After the test plants have been kept in the greenhouse under optimum growth conditions for about 3 weeks, the activity of the preparations is rated visually in comparison to untreated controls. For example, 100% activity=the plants have died, 0% activity=like control plants. […] Tables 41a and 41b below show the effects of the inventive compound (I-01) with structurally similar compounds (WO2020/245044) on various harmful plants at an application rate corresponding to 320 g/ha or less, which have been obtained by the trial procedure specified hereinafter. The inventive compound (I-01) differs here by variance of a significant structural feature from the structurally similar compound with regard to the R^2 radical. Seeds of monocotyledonous and dicotyledonous weeds and crop plants are placed in sandy loam in plastic or organic planting pots, covered with soil and cultivated in a greenhouse under controlled growth conditions. 2 to 3 weeks after sowing, the trial plants are treated at the one-leaf stage. The compounds of the invention, formulated in the form of wettable powders (WP) or as emulsion concentrates (EC), are then sprayed onto the green parts of the plants as aqueous suspension or emulsion with addition of 0.5% additive at a water application rate of 600 l/ha (converted). After the test plants have been kept in the greenhouse under optimum growth conditions for about 3 weeks, the activity of the preparations is rated visually in comparison to untreated controls. For example, 100% activity=the plants have died, 0% activity=like control plants. Effects/crop compatibilities of selected compounds (see Table 39) on various harmful plants at an application rate corresponding to 80 to 320 g/ha that have been obtained by the trial procedure specified hereinafter are shown in Tables 41a and 41b below.

In the case of `CCOC(=O)C(OCC)Oc1nn(-c2ccccc2F)c(-c2ccc(F)nc2)c1Br` (racemic) [Example I-01, Ethyl (2RS)-{[4-bromo-1-(2-fluorophenyl)-5-(6-fluoropyridin-3-yl)-1H-pyrazol-3-yl]oxy}(ethoxy)acetate], the “Post-emergence effect, Effect %, ALOMY” value (80 g/ha) is reported as 90%, the “Post-emergence effect, Effect %, ALOMY” value (320 g/ha) is reported as 100% and the “Post-emergence effect, Effect %, AVEFA” value (80 g/ha) is reported as 90%. The “Post-emergence effect, Effect %, AVEFA” value (320 g/ha) was 90%, the “Post-emergence effect, Effect %, ECHCG” value (80 g/ha) was 90% and the “Post-emergence effect, Effect %, ECHCG” value (320 g/ha) was 90%. The “Post-emergence effect, Effect %, LOLRI” value (80 g/ha) was 70%, the “Post-emergence effect, Effect %, LOLRI” value (320 g/ha) was 90% and the “Post-emergence effect, Effect %, SETVI” value (80 g/ha) was 90%. For the same compound, the “Post-emergence effect, Effect %, SETVI” value (320 g/ha) was 90% and the “herbicidal efficacy by comparison to the structurally similar compounds (Tables 41a and 41b)” value (different harmful plants, 320 g or less per hectare, vs compounds from WO2020/245044) was “distinctly improved herbicidal efficacy”.
